# Laboratory results taken from paper PMC8068801, “Novel Benzenesulfonate Scaffolds with a High Anticancer Activity and G2/M Cell Cycle Arrest” (Cancers, 2021).
# Key:
# Type in all cases: cell-based, human
# [1] = tested on: K562 cells; assay: qRT-PCR mRNA expression, K562; conditions: 24 h
# Procedure: (§1) The total RNA was isolated from the K562 and U-251 cells using the TRIzol Reagent procedure (Ambion, Austin, TX, USA). Reverse transcription was performed with 5 μg of total RNA using a GoScript™ Reverse Transcriptase kit (Promega) and Oligo(dT)23 Primers (Sigma). Real-time PCR was performed using a CTX96 Touch™ Real-Time PCR Detection System (Biorad, Hercules, CA, USA) in a 20 μL reaction volume. The reaction consisted of SsoAdvanced™ Universal SYBR® Green Supermix (Biorad), a specific primer pair mix (0.5 μM each) and 1 μL of cDNA. The reaction was performed under the following conditions: initial denaturation at 95 °C for 30 s; followed by 40 denaturation cycles at 95 °C, 15 s; annealing (primer-specific temperature for 30 s) and extension at 72 °C for 60 s. The obtained results were analyzed based on a comparison of the expression of the target genes to the reference gene, GAPDH, using the 2^−ΔΔCT method. The experiments were performed at least four times.
# [2] = tested on: U-251 cells; assay: Immunoblotting with densitometry, U-251; conditions: for Cleavage product of caspase-9 (Western blot) / PARP/Reference 89 kDa, densitometric intensity ratio / caspase-9/Reference 37-35 kDa, densitometric intensity ratio / BID/Reference 22 kDa, densitometric intensity ratio / Cathepsin b/Reference 44 kDa, densitometric intensity ratio / HIF-1α/Reference 120 kDa, densitometric intensity ratio / PARP/Reference 116 kDa, densitometric intensity ratio / caspase-9/Reference 47 kDa, densitometric intensity ratio / cdc2/Reference 34 kDa, densitometric intensity ratio / cyclin E1/Reference 48 kDa, densitometric intensity ratio / p21/Reference 21 kDa, densitometric intensity ratio / p53/Reference 53 kDa, densitometric intensity ratio / Cathepsin b/Reference 27 kDa, densitometric intensity ratio / Cathepsin b/Reference 22 kDa, densitometric intensity ratio: 24 h; for PARP/Reference 89 kDa, densitometric intensity ratio / caspase-9/Reference 37-35 kDa, densitometric intensity ratio: control 0.330; for BID/Reference 22 kDa, densitometric intensity ratio / Cathepsin b/Reference 44 kDa, densitometric intensity ratio / HIF-1α/Reference 120 kDa, densitometric intensity ratio / PARP/Reference 116 kDa, densitometric intensity ratio / caspase-9/Reference 47 kDa, densitometric intensity ratio / cdc2/Reference 34 kDa, densitometric intensity ratio / cyclin E1/Reference 48 kDa, densitometric intensity ratio / p21/Reference 21 kDa, densitometric intensity ratio / p53/Reference 53 kDa, densitometric intensity ratio: control 1.000; for Cathepsin b/Reference 27 kDa, densitometric intensity ratio: control 2.837; for Cathepsin b/Reference 22 kDa, densitometric intensity ratio: control […]
# Procedure: The K562 and U-251 cells were seeded in 3 cm Petri dishes (Nunc) at a density of 500,000 cells per well and incubated overnight. […] Next, the cell pellets were resuspended in an RIPA buffer containing a Halt Protease Inhibitor Cocktail and a Halt Phosphatase Inhibitor Cocktail along with 0.5 M EDTA (all from Thermo Scientific, Waltham, MA, USA) and lysed on ice for 20 min. Then, the obtained lysates were sonicated and centrifuged at 10,000 rpm for 10 min at 4 °C. The supernatants were collected for further analysis. The protein concentration was measured using a Micro BCA™ Protein Assay Kit (Thermo Scientific) according to the manufacturer’s instructions. Equal amounts of the proteins (16 μg) were electrophoresed on SDS-Page gels and transferred onto nitrocellulose membranes. The membranes were blocked in 5% non-fat milk prepared in TPBS (PBS containing 0.1% Tween-20) for 1 h. After blocking, the membranes were incubated with the specific primary antibodies (all from Cell Signaling) at a 1:1000 dilution—cyclin E, cdc2, PARP, AIF, BID, p53, p21^Waf1/Cip1, HIF-1α, cathepsin B and caspase-9—and at a 1:2000 dilution for the reference proteins—vinculin, β-actin and GAPDH—overnight at 4 °C. The next day, the membranes were washed in TPBS and incubated with horseradish peroxidase (HRP)-conjugated secondary antibodies for 1 h at room temperature. Lastly, the membranes were washed in TPBS and incubated with a SuperSignal™ West Pico Chemiluminescent Substrate (Thermo Scientific). The chemiluminescence signals were captured using a ChemiDoc™ XRS + System (Biorad). The experiments were performed at least four to five times. The densitometric analysis was conducted using ImageJ software (Wayne Rasband, National Institutes of Health, Bethesda, MD, USA).
# The band intensity of tested proteins (p53, cyclin E1, cdc2, p21, HIF-1α, cathepsin b, PARP, caspase-9, BID, AIF) were analyzed by densitometry readings/intensity ratio, using ImageJ software (NIH) and were normalized to the corresponding reference proteins (GAPDH, vinculin or β-actin) value.
# The densitometric readings/intensity ratio data from four/five independent experiments (compared to control): […]
# p53/ Refer- p21/ Refer- cdc2/ Refer- Cyclin E1/ HIF-1α/ Cathepsin b/Reference ence ence ence Reference Reference
# PARP/Reference BID/ Reference Caspase-9/Reference […]
# [3] = tested on: K562 cells; assay: Cell cycle assay (Muse Cell-Cycle Kit), K562; conditions: 24 h
# Procedure: (§2) The K562, U-251 and NHDF cells were seeded in 3 cm Petri dishes (Nunc) at a density of 250,000 cells per well and incubated under standard conditions at 37 °C for 24 h. […] After a 24 h treatment, the assays were performed using a Muse Cell-Cycle Kit (Millipore, Burlington, MA, USA) according to the supplier’s instructions. Briefly, the cells were collected, washed with cold PBS and centrifuged at 300 g for 5 min. Afterwards, the cells were fixed in ice cold 70% ethanol and stored at −20 °C overnight. The next day, the cells were washed with cold PBS, centrifuged and resuspended in 200 μL of the Muse™ Cell Cycle Reagent. The samples were incubated for 30 min at room temperature in the dark. After staining, the cellular subpopulation values in the individual cell cycle phases were estimated using a cell cycle analysis using a Muse Cell Analyzer (Millipore). The experiments were performed at least four times.
# [4] = tested on: U-251 cells; assay: qRT-PCR mRNA expression, U-251; conditions: for Increase in the GADD45α mRNA expression / p62 mRNA expression: 24 h; for LC3 mRNA expression: U-251, 24 h
# Procedure: as §1
# [5] = tested on: K562 cells; assay: Annexin V binding (apoptosis) assay, K562; conditions: K562, 5 µM, 48 h; 5.56% in the control cells
# Procedure: The K562, U-251 and NHDF cells were seeded in 3 cm Petri dishes (Nunc) at a density of 250,000 cells per well and incubated at 37 °C for 24 h. Then, the medium was removed, and freshly prepared solutions of the tested compounds, BS1 and BS4 (two to three times the IC50 value), were added. After a 48 h incubation, the assays were performed using a FITC Annexin V Apoptosis Detection KIT with 7-AAD (Bio-Legend) according to the manufacturer’s instructions. Briefly, the cells were collected, washed twice with cold PBS and centrifuged at 300 g for 5 min. Next, the cells were resuspended in a 100 µL Annexin V Binding Buffer and incubated for 15 min at room temperature in the dark with 5 µL of FITC Annexin V and 5 µL 7-AAD Viability Staining Solution. After immunostaining, the number of events for live, early and late apoptotic cells were determined using a Muse Cell Analyzer. The experiments were performed at least four times.
# [6] = tested on: U-251 cells; assay: Cell cycle assay (Muse Cell-Cycle Kit), U-251; conditions: 24 h
# Procedure: as §2
Structure (SMILES),"PARP/Reference 89 kDa, densitometric intensity ratio ([2]; U-251, 4µM)","caspase-9/Reference 37-35 kDa, densitometric intensity ratio ([2]; U-251, 4µM)","BID/Reference 22 kDa, densitometric intensity ratio ([2]; U-251, 4µM)","Cathepsin b/Reference 44 kDa, densitometric intensity ratio ([2]; U-251, 4µM)","HIF-1α/Reference 120 kDa, densitometric intensity ratio ([2]; U-251, 4µM)","PARP/Reference 116 kDa, densitometric intensity ratio ([2]; U-251, 4µM)","caspase-9/Reference 47 kDa, densitometric intensity ratio ([2]; U-251, 4µM)","cdc2/Reference 34 kDa, densitometric intensity ratio ([2]; U-251, 4µM)","cyclin E1/Reference 48 kDa, densitometric intensity ratio ([2]; U-251, 4µM)","p21/Reference 21 kDa, densitometric intensity ratio ([2]; U-251, 4µM)","p53/Reference 53 kDa, densitometric intensity ratio ([2]; U-251, 4µM)","Cathepsin b/Reference 27 kDa, densitometric intensity ratio ([2]; U-251, 4µM)","Cathepsin b/Reference 22 kDa, densitometric intensity ratio ([2]; U-251, 4µM)","HIF-1α protein expression (Western blot) ([2]; U-251, 24 h)","p53 protein levels (Western blot) ([2]; U-251, 24 h)","Cells in G2/M phase, mean ± SD ([3]; K562, 0.5 μM)","Increase in the GADD45α mRNA expression ([4]; U-251, 4 µM)",LC3 mRNA expression [4],Total (early and late) apoptotic cells [5],further results
"COc1ccccc1/C=C/c1nc(OS(=O)(=O)c2ccc3c(c2)OCO3)c2ccccc2n1 [BS1, 2-((E)-2-(2-methoxyphenyl)ethenyl)quinazolin-4-yl 1,3-benzodioxole-5-sulfonate]",1.044,1.485,0.675,2.467,0.550,0.871,1.167,1.986,0.576,1.932,1.357,2.726,2.940,significant decrease,slight increase,37.20%,~1.5 fold,more than two-fold increase,31.99%,"Decrease in the IDH1 mRNA level ([1]; K562, 0.5 μM): ~2.4 fold; p62 mRNA level ([1]; K562, 0.5 μM): about three-fold; Cleavage product of caspase-9 (Western blot) ([2]; U-251, 4 µM): approximately three-fold increase; Cells in G2/M phase, mean ± SD ([3]; K562, 0.35 µM): 43.46%; p62 mRNA expression ([4]; U-251, 4 µM): almost four-fold increase; Cells in G2/M phase, mean ± SD ([6]; U-251, 4 µM): 85.40%; Cells in G0/G1 phase, mean ± SD ([6]; U-251, 6 μM): 1.52%; Cells in G2/M phase, mean ± SD ([6]; U-251, 6 μM): 90.68%; Cells in S phase, mean ± SD ([6]; U-251, 6 μM): 1.52%"
"COc1ccccc1/C=C/c1nc(OS(=O)(=O)c2cc3c(cc2Br)OCO3)c2ccccc2n1 [BS2, 2-((E)-2-(2-methoxyphenyl)ethenyl)quinazolin-4-yl 6-bromo-1,3-benzodioxole-5-sulfonate]",0.763,1.071,0.701,1.805,0.587,0.953,1.007,2.272,0.465,2.205,1.698,2.625,2.893,,,,,,,"PARP/Reference 89 kDa, densitometric intensity ratio ([2]; U-251, 6µM): 0.698; caspase-9/Reference 37-35 kDa, densitometric intensity ratio ([2]; U-251, 6µM): 1.188; BID/Reference 22 kDa, densitometric intensity ratio ([2]; U-251, 6µM): 1.227; Cathepsin b/Reference 44 kDa, densitometric intensity ratio ([2]; U-251, 6µM): 2.641; HIF-1α/Reference 120 kDa, densitometric intensity ratio ([2]; U-251, 6µM): 0.661; PARP/Reference 116 kDa, densitometric intensity ratio ([2]; U-251, 6µM): 0.940; caspase-9/Reference 47 kDa, densitometric intensity ratio ([2]; U-251, 6µM): 1.035; cdc2/Reference 34 kDa, densitometric intensity ratio ([2]; U-251, 6µM): 2.282; cyclin E1/Reference 48 kDa, densitometric intensity ratio ([2]; U-251, 6µM): 0.392; p21/Reference 21 kDa, densitometric intensity ratio ([2]; U-251, 6µM): 2.783; p53/Reference 53 kDa, densitometric intensity ratio ([2]; U-251, 6µM): 1.448; Cathepsin b/Reference 27 kDa, densitometric intensity ratio ([2]; U-251, 6µM): 3.172; Cathepsin b/Reference 22 kDa, densitometric intensity ratio ([2]; U-251, 6µM): 3.717"
"COc1ccccc1/C=C/c1nc(OS(=O)(=O)c2ccc(C)cc2)c2ccccc2n1 [BS4, 2-((E)-2-(2-methoxyphenyl)ethenyl)quinazolin-4-yl 4-methylbenzenesulfonate]",,,,,,,,,,,,,,significant decrease,statistically significant increase,58.73%,~1.5 fold,more than two-fold increase,26.51%,"LC3 transcript levels ([1]; K562, 0.35 µM): decreased; Decrease in the IDH1 mRNA level ([1]; K562, 0.5 µM and 0.35 µM): about a two-fold decrease; GADD45α mRNA expression ([1]; K562, 0.5 μM): almost two-fold decrease; Cleavage product of caspase-9 (Western blot) ([2]; U-251, 6 μM): approximately three-fold increase; p21 protein expression (Western blot) ([2]; U-251, 24 h): more than two-fold increase; Cells in G0/G1 phase, mean ± SD ([3]; K562, 0.5 μM): 21.80%; Cells in S phase, mean ± SD ([3]; K562, 0.5 μM): 18.32%; p62 mRNA expression ([4]; U-251, 6 μM): almost four-fold increase; Increase in the fraction of cells in the G2/M phase compared to the control ([6]; U-251, 4 µM): ~23.1%; Increase in the fraction of cells in the G2/M phase compared to the control ([6]; U-251, 6 μM): about 40.92%"
